Measured values as given in patent publication US10993985B2, “Methods of treating acute myeloid leukemia” (BioLineRx Ltd., priority 2016, dated 2021).
Positions of bridges follow the written chain, without caps; N, C: chain ends. Non-standard residues stand in square brackets, D forms with d. 2Nal = N[C@@H](Cc1ccc2ccccc2c1)C(=O)O; Cit = NC(=O)NCCC[C@H](N)C(=O)O

Assays:
[1] = tested on: malignant cells of hematopoietic origin including AML; conditions: cited from earlier work
human AML xenografts = conditions: subcutaneous injections; cited from earlier work
[2] = tested on: blast cells in peripheral blood (PB) of AML patients; test: Phase 1/2 study: mobilization of blast cells to peripheral blood after BL-8040 in relapsed or refractory AML patients; type: in vivo, human
Protocol: In an open-label, single arm, phase 1/2 study, patients diagnosed with AML with relapsed or refractory disease received a once daily subcutaneous (SC) dose of BL-8040 as monotherapy on days 1-2 followed by the same dose of BL-8040 plus Ara-C (1.5 g/m2 for patients ≥60; 3 g/m2 for patients <60) on days 3-7. Six dose levels of BL-8040 (0.5-2.0 mg/kg) were tested in the dose escalation phase with 1.5 mg/kg selected for the expansion phase. Extensive pharmacodynamics (PD) parameters such as the extent of mobilization were assessed during the study. Clinical response to treatment was determined by BM biopsy on day 30.
Measuring Blast-Cell Density in Peripheral Blood (PB) and Bone Marrow (BM)
Bone marrow blast-cell counts were performed using procedures essentially as described by Lee et al. (Int. Jnl. Lab. Hem. 30: 349-364, 2008).
Peripheral blast-cell counts were performed using procedures essentially as described by O'Connor, B. H., A Color Atlas and Instructions Manual of Peripheral Cell Morphology, Lippincot Williams, 1984.
Clinical responses to […] treatment were determined according to the standards of the international working group for AML (Cheson et al., J. Clin. Oncol. 21: 4642-4649, 2003; Döhner et al., Blood 115: 453-474, 2010; and de Greef et al., British Journal of Hematology 128: 184-91, 2005), which are summarized in Table 1 below.

HIV-1 (X4-HIV-1) = conditions: through specific binding to CXCR4; cited from earlier work

**Q.** Which “cytotoxicity toward malignant cells of hematopoietic origin including AML” value [1] does the source give for “4F-benzoyl-Arg-Arg-Nal-Cys-Tyr-Cit-Lys-DLys-Pro-Tyr-Arg-Cit-Cys-Arg-NH2 [BL-8040]” here?
**A.** CXCR4-dependent preferential cytotoxicity

**Q.** And the “growth of human AML xenografts” value (human AML xenografts)?
**A.** significantly reduced

**Q.** And the “ratio of PB blast cell density after treatment to initial density prior to treatment” value (shortened to “ratio of PB blast cell density”) ([2]; day 2 following treatment with BL-8040, non-responsive patients (SD and PD))?
**A.** no increase was observed

**Q.** What about the “ratio of PB blast cell density” value ([2]; day 2 following treatment with BL-8040, responsive patients, CR, prior to cytarabine) of the same substance?
**A.** 2.1 fold

**Q.** And the “ratio of PB blast cell density” value ([2]; day 2 following treatment with BL-8040, responsive patients, CRi, prior to cytarabine)?
**A.** 4.0 fold

**Q.** What about the “ratio of PB blast cell density” value ([2]; day 3, 8 hr following day 3 injection (after initiation of cytarabine), non-responsive patients (SD and PD)) of the same substance?
**A.** no significant increase was observed

**Q.** What about the “ratio of PB blast cell density” value ([2]; day 3, 8 hr following day 3 injection (after initiation of cytarabine), responsive patients, CR) of the same substance?
**A.** 7.0 fold

**Q.** What about the “ratio of PB blast cell density” value ([2]; day 3, 8 hr following day 3 injection (after initiation of cytarabine), responsive patients, CRi) of the same substance?
**A.** 4.2 fold

**Q.** What about the “ratio of PB blast cell density” value ([2]; day 3 following initial treatment with BL-8040, non-responsive patients (SD and PD)) of the same substance?
**A.** no significant increase was observed

**Q.** And the “ratio of PB blast cell density” value ([2]; day 3 following initial treatment with BL-8040, responsive patients, CR, prior to cytarabine)?
**A.** 2.1 fold

**Q.** What about the “ratio of PB blast cell density” value ([2]; day 3 following initial treatment with BL-8040, responsive patients, CRi, prior to cytarabine) of the same substance?
**A.** 2.9 fold

**Q.** And the “increase of PB blast-cell density versus baseline” value (from here on “increase”) ([2]; non-responsive patients, after 2 or 3 days following first administration of BL-8040)?
**A.** did not increase

**Q.** What about the “increase” value ([2]; responsive patients (CR, CRi or CRp), after 2 days following first administration of BL-8040) of the same substance?
**A.** 3.7 fold

**Q.** And the “increase” value ([2]; responsive patients (CR, CRi or CRp), after 3 days following first administration of BL-8040)?
**A.** 3.8 fold

**Q.** For “H-Arg-Arg-Nal-Cys-Tyr-Arg-Lys-DLys-Pro-Tyr-Arg-Cit-Cys-Arg-OH (H-RR[2Nal]CYRK[dK]PYR[Cit]CR-OH; disulfide 4-13) [Analog T-140]”, which “HIV-1 (X4-HIV-1) entry to T cells” value (HIV-1 (X4-HIV-1)) is on record?
**A.** suppress
